Data: ChEMBL document CHEMBL5608163, “Structure modification of anoplin for fighting resistant bacteria” (Eur J Med Chem, 2024)
Values after ≈ are worked out from the molar mass of the structure shown. Peptide text beside a SMILES is read from it. * marks the point of attachment. Heptadecanoyl = CCCCCCCCCCCCCCCCC(=O)*; Undecanoyl = CCCCCCCCCCC(=O)*

What was measured:
[1] = Hemolytic activity in human RBC; assay type: toxicity, cell-based, Erythrocyte; details: red blood cells
Staphylococcus aureus [2] = test: Antibacterial activity against Staphylococcus aureus ATCC 29213 assessed as bacterial growth inhibition measured after 18 hrs by CLSI protocol based two-fold serial microdilution method; assay type: functional
Escherichia coli [3] = test: Antibacterial activity against Escherichia coli ATCC 25922 assessed as reduction in bacterial growth; assay type: functional
Staphylococcus aureus [4] = test: Antibacterial activity against Staphylococcus aureus ATCC 25923 assessed as reduction in bacterial growth incubated for 48 hrs by Mueller-Hinton broth based microdilution method; assay type: functional
Escherichia coli [5] = test: Antibacterial activity against Escherichia coli ATCC 25922 assessed as reduction in bacterial growth incubated for 48 hrs by Mueller-Hinton broth based microdilution method; assay type: functional
[6] = system: Mycolicibacterium smegmatis; test: Antibacterial activity against Mycobacterium smegmatis mc2 155 assessed as bacterial growth inhibition; assay type: functional
Bacillus subtilis = test: Antibacterial activity against Bacillus subtilis assessed as bacterial growth inhibition; assay type: functional
Pseudomonas aeruginosa = test: Antibacterial activity against Pseudomonas aeruginosa PAO1 assessed as bacterial growth inhibition; assay type: functional
Escherichia coli [7] = test: Antibacterial activity against Escherichia coli DH5a assessed as bacterial growth inhibition; assay type: functional
Zymomonas mobilis = test: Antibacterial activity against Zymomonas mobilis ATCC 10988 assessed as bacterial growth inhibition; assay type: functional
[8] = Hemolytic activity in human erythrocytes measured after 1 hrs by microplate reader analysis; assay type: toxicity, cell-based, Erythrocyte

SMILES	HC50 [1] [µM]	MIC (Staphylococcus aureus [2]) [µM]	MIC (Escherichia coli [3]) [µM]	MIC (Staphylococcus aureus [4]) [µM]	MIC (Escherichia coli [5]) [µM]	MIC [6] [µM]	MIC (Bacillus subtilis) [µM]	MIC (Pseudomonas aeruginosa) [µM]	MIC (Escherichia coli [7]) [µM]	MIC (Zymomonas mobilis) [µM]	HC50 at 1 h [8] [µM]
CC[C@H](C)[C@H](NC(=O)[C@H](CC(C)C)NC(=O)[C@H](CCCCN)NC(=O)[C@H](CC(C)C)NC(=O)[C@H](CC(C)C)NC(=O)CN)C(=O)N[C@@H](CCCCN)C(=O)N[C@H](C(=O)N[C@@H](CC(C)C)C(=O)N[C@@H](CC(C)C)C(N)=O)[C@@H](C)O (H-GLLKLIKTLL-NH2)	11.7	1.8 (≈ 2 µg/mL)	1.8 (≈ 2 µg/mL)	–	–	–	–	–	–	–	–
CC[C@H](C)[C@H](NC(=O)[C@H](CC(N)=O)NC(=O)[C@H](CCCCN)NC(=O)[C@H](CC(C)C)NC(=O)[C@H](CC(C)C)NC(=O)CN)C(=O)N[C@@H](CCCCN)C(=O)N[C@H](C(=O)N[C@@H](CC(C)C)C(=O)N[C@@H](CC(C)C)C(N)=O)[C@@H](C)O (H-GLLKNIKTLL-NH2)	–	1.7 (≈ 1.89 µg/mL)	1.7 (≈ 1.89 µg/mL)	–	–	–	–	–	–	–	–
CC[C@H](C)[C@H](NC(=O)[C@@H](NC(=O)[C@H](CCCCN)NC(=O)[C@H](CC(C)C)NC(=O)[C@H](CC(C)C)NC(=O)CN)C(C)C)C(=O)N[C@@H](CCCCN)C(=O)N[C@H](C(=O)N[C@@H](CC(C)C)C(=O)N[C@@H](CC(C)C)C(N)=O)[C@@H](C)O (H-GLLKVIKTLL-NH2)	54.7	2.7 (≈ 2.96 µg/mL)	2.7 (≈ 2.96 µg/mL)	–	–	–	–	–	–	–	–
CCCCCCCCCCCCCCCCC(=O)NCC(=O)N[C@@H](CC(C)C)C(=O)N[C@@H](CC(C)C)C(=O)N[C@@H](CCCCN)C(=O)N[C@@H](CCCNC(=N)N)C(=O)N[C@H](C(=O)N[C@@H](CCCCN)C(=O)N[C@H](C(=O)N[C@@H](CC(C)C)C(=O)N[C@@H](CC(C)C)C(N)=O)[C@@H](C)O)[C@@H](C)CC (Heptadecanoyl-GLLKRIKTLL-NH2)	–	–	–	4.67 (≈ 6.57 µg/mL)	2.34 (≈ 3.29 µg/mL)	–	–	–	–	–	–
CCCCCCCCCCC(=O)NCC(=O)N[C@@H](CC(C)C)C(=O)N[C@@H](CCCCN)C(=O)N[C@@H](CCCCN)C(=O)N[C@H](C(=O)N[C@H](C(=O)N[C@@H](CCCCN)C(=O)N[C@@H](CCCCN)C(=O)N[C@@H](CC(C)C)C(=O)N[C@@H](CC(C)C)C(N)=O)[C@@H](C)CC)[C@@H](C)CC (Undecanoyl-GLKKIIKKLL-NH2)	–	–	–	–	–	0.42 (≈ 0.555 µg/mL)	5.83 (≈ 7.7 µg/mL)	16.7 (≈ 22 µg/mL)	25 (≈ 33 µg/mL)	12.5 (≈ 16.5 µg/mL)	62.9
CCCCCCCCCCC(=O)NCC(=O)N[C@@H](CC(C)C)C(=O)N[C@@H](CC(C)C)C(=O)N[C@@H](CCCCN)C(=O)N[C@H](C(=O)N[C@H](C(=O)N[C@@H](CCCCN)C(=O)N[C@@H](CCCCN)C(=O)N[C@@H](CC(C)C)C(=O)N[C@@H](CC(C)C)C(N)=O)[C@@H](C)CC)[C@@H](C)CC (Undecanoyl-GLLKIIKKLL-NH2)	–	–	–	–	–	6.08 (≈ 7.94 µg/mL)	26 (≈ 34 µg/mL)	34.7 (≈ 45.3 µg/mL)	> 174	8.68 (≈ 11.3 µg/mL)	38.7
CCCCCCCCCCC(=O)NCC(=O)N[C@@H](CC(C)C)C(=O)N[C@@H](CC(C)C)C(=O)N[C@@H](CCCCN)C(=O)N[C@H](C(=O)N[C@H](C(=O)N[C@@H](CCCCN)C(=O)N[C@@H](CCCNC(=N)N)C(=O)N[C@@H](CC(C)C)C(=O)N[C@@H](CC(C)C)C(N)=O)[C@@H](C)CC)[C@@H](C)CC (Undecanoyl-GLLKIIKRLL-NH2)	–	–	–	–	–	33.3 (≈ 44.4 µg/mL)	167 (≈ 222 µg/mL)	33.3 (≈ 44.4 µg/mL)	> 167	12.5 (≈ 16.7 µg/mL)	56.8
CCCCCCCCCCC(=O)NCC(=O)N[C@@H](CC(C)C)C(=O)N[C@@H](CC(C)C)C(=O)N[C@@H](CCCCN)C(=O)N[C@@H](CCCCN)C(=O)N[C@H](C(=O)N[C@@H](CCCCN)C(=O)N[C@@H](CCCNC(=N)N)C(=O)N[C@@H](CC(C)C)C(=O)N[C@@H](CC(C)C)C(N)=O)[C@@H](C)CC (Undecanoyl-GLLKKIKRLL-NH2)	–	–	–	–	–	86.2 (≈ 116 µg/mL)	86.2 (≈ 116 µg/mL)	2.58 (≈ 3.48 µg/mL)	34.4 (≈ 46.3 µg/mL)	4.3 (≈ 5.8 µg/mL)	38
